Numbered stars: 1 amine (or outer) side, 2 acyl side, 3 side chain; on linkers, the order of the positions; unused ones are H or OH. Square brackets hold non-standard residues; d marks the D form. Peptide text beside a SMILES is read from it. X2 = CC[C@H](C)[C@@H](N[*:1])C1=N[C@H](C(=O)[*:2])CS1; X1 = O=C([C@@H]1CSC([C@H]2CCCN2[*:1])=N1)[*:2]
Test system: P388
Assay: Cytotoxicity against mouse P388 cells after 3 days by MTT assay
Assay type: functional, cell-based
Conditions: P388, 72 h

Row | SMILES | IC50
1 | CC[C@H](C)[C@@H]1NC(=O)[C@@H]2CSC(=N2)[C@H]2CCCN2C(=O)[C@H]([C@@H](C)O)NC(=O)[C@H](C(C)C)NC(=O)[C@H](C(C)C)NC(=O)[C@H]([C@@H](C)O)NC(=O)[C@@H]2CSC(=N2)[C@@H]([C@@H](C)CC)NC(=O)[C@H](C(C)C)NC(=O)[C@@H]2CSC(=N2)[C@H]2CCCN2C1=O [CYCLOFORSKAMIDE] (cyclo(I[X1]V[X2]TVVT[X1])) | 5.8 µM
2 | COc1cccc2c1C(=O)c1c(O)c3c(c(O)c1C2=O)C[C@@](O)(C(=O)CO)C[C@@H]3O[C@H]1C[C@H](N)[C@H](O)[C@H](C)O1 [DOXORUBICIN] | 0.21 µM

From ChEMBL document CHEMBL2407077, “Cycloforskamide, a cytotoxic macrocyclic peptide from the sea slug Pleurobranchus forskalii” (J Nat Prod, 2013)
